According to patent US6890736B1, “Methods for producing proteins in cultured cells” (Immunex Corporation, priority 2002, dated 2005):

Experiment: Example 1: cell number (hemocytometer) and viability (trypan blue)
Type: cell-based, Chinese hamster
Conditions: Chinese hamster; for viability at 0 day, 1 μM / viability at 3 day, 1 μM / viability at 5 day, 1 μM / viability at 7 day, 1 μM / viability at 10 day, 1 μM: 1 μM decitabine; for viability at 0 day, 1 μM / viability at 0 day, 5 μM / viability at 0 day, 10 μM: day 0; for viability at 3 day, 1 μM / viability at 3 day, 5 μM / viability at 3 day, 10 μM: day 3; for viability at 5 day, 1 μM / viability at 5 day, 5 μM / viability at 5 day, 10 μM: day 5; for viability at 7 day, 1 μM / viability at 7 day, 5 μM / viability at 7 day, 10 μM: day 7; for viability at 0 day, 5 μM / viability at 3 day, 5 μM / viability at 5 day, 5 μM / viability at 7 day, 5 μM / viability at 10 day, 5 μM: 5 μM decitabine
Protocol: The following experiment was designed to test whether decitabine can induce the production of a protein, in this case a recombinant soluble form of the human interleukin 1 receptor type II (IL-1-R-II), at either 31° C. or 34° C. Soluble versions of IL-1R-II and methods for producing it are described in U.S. Pat. No. 5,767,064. DNA encoding a soluble form of the human IL-1R-II was inserted into pG3.6, which is described in Morris et al. ((1998), Cytotechnology 28:9-17). This construct was used to transfect CHO cells to produce cell lines, including 25H9, that produce IL-1R-II protein.
About 2×10^6 cells of cell line 25H9 were inoculated into 30 milliliters of serum-free medium and incubated at the temperatures indicated in Table 1 in vented shake flasks. At the times indicated in Table 1, samples were taken from each flask to determine IL-1R-II titer, cell number, and cell viability. IL-1R-II protein titer was determined by ELISA assay. Cell number was determined by counting cells in a hemocytometer. Cell viability was determined by trypan blue staining and counting stained cells in a hemocytometer. Cumulative viable cell density (CVCD) is the area under the curve of a plot of the viable cell density versus time (in units of cells/ml/day). Productivity (pg of IL-1R-II/cell/day) was determined by dividing the protein titer on a particular day by the CVCD on the same day. Cells were fed with amino acids on days 2 and 5, and dextrose was added periodically in order to maintain levels above 2.0 g/L. All samples were done in duplicate, and the data shown is an average value.

Nc1ncn([C@H]2C[C@H](O)[C@@H](CO)O2)c(=O)n1 [decitabine, 5-aza-2′-deoxycytidine]
viability at 0 day, 1 μM (31° C.): 96.1%
viability at 3 day, 1 μM (31° C.): 93.4%
viability at 5 day, 1 μM (31° C.): 94.8%
viability at 7 day, 1 μM (31° C.): 87.7%
viability at 10 day, 1 μM (31° C., day 10): 63.9%
viability at 0 day, 5 μM (31° C.): 96.1%
viability at 3 day, 5 μM (31° C.): 93.6%
viability at 5 day, 5 μM (31° C.): 84.6%
viability at 7 day, 5 μM (31° C.): 77.7%
viability at 10 day, 5 μM (31° C., day 10): 58.5%
viability at 0 day, 10 μM (31° C., 10 μM decitabine): 96.1%
viability at 3 day, 10 μM (31° C., 10 μM decitabine): 94.5%
viability at 5 day, 10 μM (31° C., 10 μM decitabine): 80.8%
viability at 7 day, 10 μM (31° C., 10 μM decitabine): 72.5%
viability at 10 day, 10 μM (31° C., 10 μM decitabine, day 10): 50.6%
viability at 0 day, 1 μM (34° C.): 96.1%
viability at 3 day, 1 μM (34° C.): 93.6%
viability at 5 day, 1 μM (34° C.): 91.5%
viability at 7 day, 1 μM (34° C.): 55%
viability at 10 day, 1 μM (34° C., day 10): 21.4%
viability at 0 day, 5 μM (34° C.): 96.1%
viability at 3 day, 5 μM (34° C.): 96.1%
viability at 5 day, 5 μM (34° C.): 80.3%
viability at 7 day, 5 μM (34° C.): 62.7%
viability at 10 day, 5 μM (34° C., day 10): 33.3%
viability at 0 day, 10 μM (34° C., 10 μM decitabine): 96.1%
viability at 3 day, 10 μM (34° C., 10 μM decitabine): 93.6%
viability at 5 day, 10 μM (34° C., 10 μM decitabine): 75.3%
viability at 7 day, 10 μM (34° C., 10 μM decitabine): 43.9%
